Test results taken from US20230133630A1, “Oral Care Compositions Comprising Dicarboxylic Acid” (The Procter & Gamble Company, priority 2021, published 2023).

Legend:
Assay type in all cases: cell-based
[1] = system: human gingival keratinocytes (Gie-No3-B11), E. coli LPS; assay: Infection of human gingival keratinocytes by fluorescent E. coli LPS
Description: (§1) One method to assess the potential of dicarboxylic acids to reduce gum disease and improve health was to assess the infection potential of gingival keratinocytes. In this model, human gingival keratinocytes (Gie-No3-B11, purchased from Creative Bioarray, Shirley, N.Y.) were maintained in a 37° C. incubator with 5% CO2. Cells were seeded in 100 μL cell suspension to each well (2K cells/well). Cells were treated 24 hours after seeding. Growth medium alone or growth medium with solvent vehicle was used as a negative control. Positive controls are either fluorescent E. coli LPS, or fluorescent S. minnesota LPS (https://corporate.thermofisher.com/us/en/index.html), fluorescence-label P. gingivalis outer membrane vesicles (OMV) with or without medium or solvent vehicle. P. gingivalis OMV was isolated following procedures described by Cecil et al. 2016 (Jessica D. Cecil, Neil M. O'Brien-Simpson, Jason C. Lenzo, James A. Holden, Yu-Yen Chen, William Singleton, Katelyn Gause, Yan Yan, Frank Caruso, and Eric C. Reynolds. Differential Responses of Pattern Recognition Receptors to Outer Membrane Vesicles of Three Periodontal Pathogens. iPLoS One. 2016; 11(4): e0151967). The OMV was stained with Lipophilic Tracer DiO following manufacturer's instruction (https://corporate.thermofisher.com/us/en/index.html). Compounds were dissolved in water and diluted in culture medium (all dilutions are deep yellow, or very acidic). All compounds and fluorescent LPS or OMV were added to cells at the same time. It is worth mentioning that cell culture medium changed immediately following adding the compounds from pink (pH7-7.4) to deep yellow (acidic). Images were taken in four sites in each well at a 3-hour interval over 48 to 120 hours in Incucyte® Live-Cell Analysis Systems (https://www.sartorius.com/en/products/live-cell-imaging-analysis/live-cell-analysis-instruments#id-789214). Data were processed and analyzed using R-programs.

[2] = system: human gingival keratinocytes (Gie-No3-B11), P. gingivalis OMV; assay: Infection of human gingival keratinocytes by fluorescence-label P. gingivalis outer membrane vesicles (OMV); conditions: for inhibition at 100000 µM: concentration 100 mM
Description: as §1

[3] = system: human gingival keratinocytes (Gie-No3-B11), S. minnesota LPS; assay: Infection of human gingival keratinocytes by fluorescent S. minnesota LPS
Description: as §1

[4] = Homo sapiens, Keratinocyte, concentration 5 mM
[5] = Homo sapiens, Keratinocyte, concentration 11.11 mM
[6] = Homo sapiens, Keratinocyte, concentration 7.5 mM
[7] = Homo sapiens, Keratinocyte, concentration 125 μM

SMILES: O=C(O)CC(O)C(=O)O (stereo not drawn) [DL_Maleic_acid]
- Inhibition % ([1]; concentration 5 mM): 36.3%
- Inhibition % ([2]; concentration 11.11 mM): 62.2%
- Inhibition % ([3]; concentration 7.5 mM): 59.9%

SMILES: O=C(O)C(O)C(O)C(=O)O (stereo not drawn) [DL_Tartaric_acid, DL tartaric acid]
- Inhibition % ([2]; concentration 1 mM): 57.7%
- Inhibition % ([3]; concentration 1 mM): 26.4%

SMILES: CC(C)(C(=O)O)C(=O)O [Dimethylmalonic_Acid, dimethylmalonic acid]
- inhibition at 5000 µM [1, 4]: 33.8%
- inhibition at 11110 µM [2, 5]: 81.3%
- inhibition at 7500 µM [3, 6]: 54.5%

SMILES: O=C(O)/C=C/C(=O)O [Fumaric_acid, fumaric acid]
- inhibition at 7500 µM [1, 6]: 31%
- inhibition at 33330 µM ([2]; Homo sapiens, Keratinocyte, concentration 33.33 mM): 53.1%
- inhibition at 7500 µM [3, 6]: 71.9%

SMILES: O=C(O)[C@H](O)[C@@H](O)C(=O)O [L_+_Tartaric_acid, L-tartaric acid]
- Inhibition % ([2]; concentration 2.5 mM): 73.6%
- Inhibition % ([3]; concentration 10 mM): 52.1%

SMILES: O=C(O)/C=C\C(=O)O [Maleic_acid, maleic acid]
- inhibition at 5000 µM [1, 4]: 63.8%
- inhibition at 100000 µM ([2]; Homo sapiens, Keratinocyte): 83.3%
- inhibition at 3000 µM ([3]; Homo sapiens, Keratinocyte, concentration 3 mM): 73.8%

SMILES: O=C(O)CC(=O)O [Malonic_acid, malonic acid]
- inhibition at 5000 µM [1, 4]: 35.9%
- inhibition at 11110 µM [2, 5]: 69.3%

SMILES: CC(C(=O)O)C(=O)O [Methyl_malonic_acid, methylmalonic acid]
- inhibition at 5000 µM [1, 4]: 30.7%
- inhibition at 11110 µM [2, 5]: 63.6%
- inhibition at 2500 µM ([3]; Homo sapiens, Keratinocyte, concentration 2.5 mM): 28.7%

SMILES: O=C(O)C(=O)O [Oxalic_acid, oxalic acid]
- inhibition at 125 µM [1, 7]: 38.2%
- inhibition at 100000 µM ([2]; Homo sapiens, Keratinocyte): 32.8%
- inhibition at 125 µM [3, 7]: 22.5%

SMILES: O.O=C([O-])C(=O)[O-].[K+].[K+] [Potassium_oxalate_monohydrate, Potassium Oxalate Monohydrate]
- Inhibition % ([1]; concentration 125 μM): 21.5%
- Inhibition % ([3]; concentration 125 μM): 41.5%

SMILES: O=C(O)C(=O)C(=O)O [Sodium_mesoxalate_monohydrate, Sodium Mesoxalate Monohydrate]
- inhibition at 5000 µM [2, 4]: 44.3%

SMILES: O=C(O)CCC(=O)O [Succinic_acid, succinic acid]
- inhibition at 2000 µM ([2]; Homo sapiens, Keratinocyte, concentration 2 mM): 73%
- inhibition at 1000 µM ([3]; Homo sapiens, Keratinocyte, concentration 1 mM): 42.3%
